The record followed here is PubChem BioAssay (NCI).

Among the test systems are HCC-2998 colon; HCT-15 colon; OVCAR-4 ovarian; 786-0 renal; A498 renal; MDA-N; COLO 205 colon; KM12 colon; MOLT-4 leukemia; HL-60(TB) leukemia; M14 melanoma; CAKI-1 renal; ACHN renal; SR leukemia.
Common to all, as to assay: inhibition of tumour cell growth, NCI panel, 48 h

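Results reflect a 48-hour exposure of cells in 96-well plates to compound at five concentrations. Definition used: TGI = concentration required for complete inhibition of growth.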

As to `CCN(CC)c1ccc2c(c1)OC(=O)C(c1nnc(-c3ccc([N+](=O)[O-])cc3)o1)C2` (stereo not given), the TGI in the assay with HCC-2998 colon, in the assay with HCT-15 colon, with OVCAR-4 ovarian, with 786-0 renal, in the assay on A498 renal and with MDA-N was more than 100 µM each time. Moreover, the TGI with COLO 205 colon, in the assay on KM12 colon, in the assay on MOLT-4 leukemia, in the assay on HL-60(TB) leukemia, in the assay on M14 melanoma and in the assay on CAKI-1 renal was more than 100 µM throughout. This molecule yielded a TGI in the assay on ACHN renal of more than 100 µM.
Regarding `Cc1cccc2[nH]c3cc(O)cc(O)c3c(=O)c12`, the TGI in the assay on HCT-15 colon, with OVCAR-4 ovarian, in the assay on 786-0 renal, with MDA-N, in the assay with COLO 205 colon and in the assay with KM12 colon was more than 10 µM throughout. The TGI with MOLT-4 leukemia, in the assay with M14 melanoma, in the assay on CAKI-1 renal and in the assay on ACHN renal was more than 10 µM throughout.
Turning to `Nc1nc(Cl)c(N)c(NCC2(CO)CC(Cc3ccccc3)C2)n1` (stereo not given), the TGI was more than 100 µM in the assay with HCC-2998 colon; more than 100 µM in the assay on HCT-15 colon; more than 100 µM in the assay with OVCAR-4 ovarian; more than 100 µM in the assay on 786-0 renal; more than 78.5 µM in the assay on A498 renal; more than 100 µM in the assay with MDA-N. The TGI in the assay with COLO 205 colon was more than 100 µM; in the assay with KM12 colon, more than 100 µM; with MOLT-4 leukemia, more than 78.8 µM; in the assay with HL-60(TB) leukemia it was 17.3 µM; with M14 melanoma it was more than 100 µM; with CAKI-1 renal it was more than 100 µM. The same molecule yielded a TGI with ACHN renal of more than 100 µM.
Consider `O=C1NCN(c2ccccc2)C12CCN(CCc1ccc3[nH]c(=S)[nH]c3c1)CC2`, for which the TGI in the assay with HCT-15 colon is more than 100 µM; in the assay on OVCAR-4 ovarian, more than 100 µM; in the assay with 786-0 renal, more than 100 µM; in the assay with A498 renal, more than 100 µM; in the assay with COLO 205 colon, 30.7 µM; in the assay on KM12 colon, more than 100 µM. For the same molecule, the TGI was more than 100 µM in the assay on MOLT-4 leukemia; more than 100 µM with HL-60(TB) leukemia; 58.3 µM with M14 melanoma; more than 100 µM in the assay on CAKI-1 renal; more than 100 µM in the assay with ACHN renal.
With `CC(NC(=O)C(OC(=O)C(C)NC(=O)OC(C)(C)C)C(C)C)C(=O)OC(C(=O)O)C(C)C` (stereo not given), the TGI in the assay with HCC-2998 colon, in the assay with HCT-15 colon, in the assay with 786-0 renal, in the assay on SR leukemia, with MDA-N and with COLO 205 colon was more than 100 µM each time. The TGI in the assay on KM12 colon, with MOLT-4 leukemia, in the assay on M14 melanoma, with CAKI-1 renal and in the assay with ACHN renal was more than 100 µM throughout.
Take `CC1CC(=O)Nc2cc(Cl)ccc2N1C(=O)C1CC1` (stereo not given): the TGI in the assay with HCC-2998 colon, with HCT-15 colon, in the assay with OVCAR-4 ovarian, in the assay on 786-0 renal, with A498 renal and with MDA-N was more than 100 µM each time. Also, the TGI in the assay with COLO 205 colon, with KM12 colon, in the assay with MOLT-4 leukemia, in the assay with HL-60(TB) leukemia, in the assay with M14 melanoma and in the assay with CAKI-1 renal was more than 100 µM in each case. In addition, in the assay on ACHN renal, the TGI was more than 100 µM.
As for `CCOC(=O)[C@@H]1C[C@H]1c1ccc(O)c(O)c1`, the TGI in the assay on HCC-2998 colon is 91.9 µM; with HCT-15 colon, more than 100 µM; with 786-0 renal, more than 100 µM; with SR leukemia it was more than 100 µM; in the assay with MDA-N, 37.8 µM; in the assay with COLO 205 colon, more than 100 µM. In addition, the TGI is more than 100 µM with KM12 colon; more than 100 µM with MOLT-4 leukemia; 73.6 µM with M14 melanoma; more than 100 µM in the assay with CAKI-1 renal; more than 100 µM in the assay with ACHN renal.
Regarding `Cc1c(/C=N/NC(=S)Nc2cccc(Cl)c2)c(=O)n(-c2ccccc2)n1C`, the TGI with HCC-2998 colon is more than 100 µM; with HCT-15 colon, more than 100 µM; in the assay on OVCAR-4 ovarian, 40 µM; in the assay on 786-0 renal it was 37 µM; with A498 renal, 19.9 µM; in the assay with SR leukemia it was more than 100 µM. For the same molecule, the TGI is more than 100 µM in the assay with COLO 205 colon; more than 100 µM in the assay with KM12 colon; more than 100 µM in the assay on MOLT-4 leukemia; more than 100 µM with HL-60(TB) leukemia; 40.1 µM in the assay on M14 melanoma; 25.7 µM with CAKI-1 renal. For the same molecule, in the assay with ACHN renal, the TGI was 37.5 µM.
Regarding `Cc1cc(C)nc(NS(=O)(=O)c2ccc(NN=c3c4ccccc4n(C)c4ccccc34)cc2)n1`, the TGI in the assay with HCC-2998 colon was 89.8 µM; in the assay with HCT-15 colon, more than 100 µM; in the assay with OVCAR-4 ovarian it was 99.3 µM; with 786-0 renal, more than 100 µM; in the assay with MDA-N, 59.6 µM; in the assay with COLO 205 colon, more than 100 µM. In addition, the TGI is more than 100 µM in the assay on KM12 colon; 79.6 µM in the assay on MOLT-4 leukemia; more than 100 µM in the assay with HL-60(TB) leukemia; more than 100 µM in the assay on M14 melanoma; more than 100 µM with CAKI-1 renal; 77.4 µM in the assay on ACHN renal.
For the molecule `Clc1cc(OCc2nn3c(Cc4ccccc4)nnc3s2)ccc1OCc1nn2c(Cc3ccccc3)nnc2s1`, the TGI is more than 100 µM in the assay with HCC-2998 colon; more than 100 µM in the assay on HCT-15 colon; 59.3 µM with OVCAR-4 ovarian; 56.8 µM in the assay on 786-0 renal; 79.6 µM in the assay on A498 renal; more than 100 µM with SR leukemia. Besides, the TGI in the assay with COLO 205 colon was more than 100 µM; with KM12 colon it was more than 100 µM; in the assay with MOLT-4 leukemia it was more than 100 µM; in the assay on HL-60(TB) leukemia, more than 100 µM; in the assay on M14 melanoma, more than 100 µM; in the assay with CAKI-1 renal, 99.6 µM. The TGI in the assay with ACHN renal is more than 100 µM.
With `O=c1cc(CO)n(CCc2c[nH]c3ccccc23)cc1O`, the TGI is more than 100 µM in the assay on HCT-15 colon; 98.1 µM with 786-0 renal; more than 100 µM in the assay with MDA-N; more than 100 µM with COLO 205 colon; more than 100 µM with KM12 colon; 47.8 µM with MOLT-4 leukemia. Also, the TGI in the assay on M14 melanoma, in the assay with CAKI-1 renal and with ACHN renal was more than 100 µM each time.
Consider `COc1ccc(-c2cc(-c3ccc(Cl)cc3)n(C3OC(CO)C(O)C(O)C3O)c(=S)c2C#N)cc1` (stereo not given), for which the TGI in the assay on HCC-2998 colon was more than 100 µM; in the assay with HCT-15 colon, more than 100 µM; with OVCAR-4 ovarian it was more than 100 µM; with 786-0 renal, 35.5 µM; in the assay with SR leukemia, more than 100 µM; with MDA-N it was more than 100 µM. Moreover, the TGI was more than 100 µM in the assay on COLO 205 colon; more than 100 µM in the assay on KM12 colon; more than 100 µM in the assay with MOLT-4 leukemia; 89.7 µM in the assay on M14 melanoma; more than 100 µM with ACHN renal.
